Where “and” joins values, the source holds several entries; their conditions need not be identical. Equal values may be shown once.
How the values were obtained:
[1] = Determination of Solubility in Soybean Oil (HPLC of oil phase after equilibration); type: physicochemical; details: for % Salt in Oil Layer / % Amidino Hydrazone in Oil Layer (w/w), Average: 25° C.; for % Salt in Oil Layer: footnote * formula (drawing 4); for % Amidino Hydrazone in Oil Layer (w/w), Average: average of duplicates; for % Amidino Hydrazone in Oil Layer (w/w): individual duplicate, equilibrated at 100° C. 4 hours, cooled to 25° C.
Procedure: Each salt of example 1 was equilibrated with approximately 3/8 its weight of soybean oil at 100° C. for 4 hours with ultrasonic agitation. The resulting mixtures were centrifuged while hot and allowed to cool to room temperature (25° C.). […] Duplicate samples of the oil phases were analyzed by solution in methylene chloride and quantitation by HPLC.

[2] = system: Tobacco budworm (Heliothis vireacens), 1st instar; test: Screening, TBW 1st instar test; type: in vivo
Procedure: Insect: Tobacco budworm (Heliothis vireacens), 1st instar.
Test: Screening, TBW 1st instar test.
(§1) Formulation: 50:50 acetone:water
Concentrations: Screening: 300, 100, 10, 1 ppm
(§2) Plant Preparation: Cotton plants are selected to give plants with the first true leaf expanded to about 6-7 cm in length.
Insect Preparation: Cheesecloth on which moths have oviposited is daily cut into 10-20 mm squares containing 50-100 eggs each. These squares are held at 21° C. for 2 days and 24° C. for another day in order to coordinate hatch with testing times. Thus, the larvae are 0-2 hours old at time of use.
Test Procedure: The cotton plant is dipped in the test formulation, agitated for 3 seconds, and placed in the hood to air dry. When dry, the leaf is removed from the plant and placed in an "8-ounce Dixie cup (240 ml, 6 cm high, top diameter 9.5 cm, bottom diameter (8 cm)" to which a 5 cm length of damp cotton dental wick had been previously added. A square of cheesecloth with newly hatched budworm larvae on it is placed on the treated leaf and a clear plastic lid is put on the cup.
Holding Conditions: The cups are held at 27° C. for 2 days.
Observations: Kill of larvae. This may require the use of a low-power microscope to determine if the worms are dead or just not feeding. Observation of amount of feeding is also recorded. Where there is only trace to light feeding, the cup is held an extra day and results recorded at that time. The standard rating system of 0-9 is used.

[3] = system: Phosphate resistant 2-spotted spider mite (Tetranychus urticae); test: Screening: Mite test; type: in vivo; details: 300 ppm
Procedure: Mite: Phosphate resistant 2-spotted spider mite
(Tetranychus urticae), adults, eggs, nymphs.
Test: Screening: Mite test.
as §1
Plant Preparation: Sieva lima bean plants with primary leaves 7-8 cm long are selected and cut back to one plant per pot. A small piece is cut off of a leaf taken from the main mite colony and placed on each leaf of the test plants. This is done about 1-3 hours before use to allow the mites to move over to the test plant and lay eggs before treatment. The size of the piece cut is varied to try to obtain about 100 mites per leaf.
Mite Preparation: See above.
Test Procedure: The piece of leaf used to transfer mites is removed and discarded. The mite-infested plant is dipped in the test formulation for 3 seconds with agitation, and the plant set in the hood to dry.
Holding Conditions: The plants are held for 2 days at 27° C. for the first observation, and the second leaf is kept on the plant for another 5 days for the final observation.
Observations: After 2 days one leaf is removed and examined under a 10×microscope to determine the mortality of the adult mites. The second leaf is examined similarly 7 days after treatment to observe the kill of eggs and of newly hatched nymphs giving a measure of ovicidal and residual action, respectively. Any evidence of phytotoxicity from the test treatment is noted. The standard rating system of 0-9 is used to record the mite data.

[4] = system: Southern armyworm (Spodoptera eridania), 3rd instar; test: Screening: Southern armyworm larva; type: in vivo
Procedure: Insect: Southern armyworm (Spodoptera eridania). 3rd instar.
Test: Screening: Southern armyworm larva.
Formulation: 2:1 acetone:water.
Plant Preparation: Sieva lima bean plants are selected with primary leaves 7-8 cm long and cut back to one plant per pot.
Insect Preparation: A 100×10 mm petri dish is prepared by putting a damp filter paper in the bottom and ten 3rd instar larvae are added. These are about 10 mm long.
Test Procedure: The bean plant is dipped for 3 seconds with agitation in the test formulation and placed in the hood to dry. One leaf is removed from the plant and placed in the petri dish with the caterpillars.
Holding Conditions: The dish is held at 27° C. The plant with the remaining leaf is held in the greenhouse under high intensity lights.
Observations: Mortality counts are made after 2 days and recorded using the standard 0-9 rating system.

[5] = system: Tobacco budworm (Heliothis virescens), egg; test: Screening, TBW egg test (tobacco budworm eggs); type: in vivo; details: 300 ppm
Text: Insect: Tobacco budworm (Heliothis virescens), egg
Test: Screening, TBW egg test.
(§3) Formulation: 50:50 acetone:water.
Concentrations: Screening: 300, 100, 10, 1 ppm.
as §2
Insect Preparation: Eggs are collected on cheesecloth used as the lid for the moth oviposition chamber in the rearing colony. This cloth is cut into 10-20 mm squares containing about 50-100 budworm eggs laid within the past day. Thus, eggs are 6-30 hours old when used in the test.
Test Procedures: The cotton plant is dipped in the test formulation and agitated for 3 seconds. A square of cheesecloth with eggs is also dipped in the test formulation, placed on the treated leaf and the combination placed in the hood to air dry. When dry, the leaf and egg cloth are removed from the plant, and placed in an "8-ounce Dixie cup (240 ml. 6 cm high, top diameter 9.5 cm. bottom diameter 8 cm)," to which a 5 cm length of damp cotton dental wick had been previously added. A clear plastic lid is placed on the cup.
Holding Conditions: The cups are held at 27° C. until the eggs hatch, which occurs in about 2 days.
Observations: Kill of eggs. This may require the use of a low-power microscope to determine if the lack of visible mobile caterpillars is due to lack of egg hatch or due to the newly hatched caterpillars dying on the leaf under and near the cheesecloth. The standard rating system of 0-9 is used to record the results.

[6] = system: Bean aphid (Aphis fabae), mixed stages; test: Screening: bean aphid test; type: in vivo; details: 100 ppm
Procedure: Insect: Bean aphid (Aphis fabae), mixed stages.
Test: Screening: bean aphid test
as §3
Plant Preparation: 5 cm pots each containing a nasturtium plant about 5 cm tall are infested with 100 to 400 aphids 2-4 days before the test.
Insect Preparation: See above.
Test Procedure: The pot of aphids is sprayed for 2 revolutions of a 4 rpm turntable in the hood, using a #154 DeVilbiss atomizer at 1500 kg/m^2 pressure. The spray tip is held about 15 cm from the plant and the spray directed so as to give complete coverage of the aphid and the plants. The sprayed plants are laid on their sides on white enamel trays measuring 24×34 cm.
Holding Conditions: Trays of sprayed pots are held at 27° C. for 1 day.
Observations: Mortality estimates are made and data recorded with the standard […] rating system.
NOTE: For LD50 determinations, a clean tray 24×34 cm is ruled off into a grid with 3 cm spacing and the live aphids gently brushed off the plant onto the gridded tray. This makes it easier to make an exact count of the number of aphids on the plant. Dead aphids, which fall off the plant onto the tray, are counted where they fall, since they stick to the tray and cannot be brushed onto a gridded tray for counting.

[7] = Solubility of the toxicant in fatty acids and edible fats and oils; type: physicochemical
[8] = listed as Amidino Hydrazone Salt Of Linoleic Acid
[9] = listed as Amidino Hydrazone Salt Of Linolenic Acid
[10] = listed as Amidino Hydrazone Salt Of Oleic Acid
[11] = listed as Amidino Hydrazone Salt Of Stearic Acid

| SMILES | 1st Instar Tobacco Budworms control rating ([2]; 10 ppm) | 1st Instar Tobacco Budworms control rating ([2]; 100 ppm) | 1st Instar Tobacco Budworms control rating ([2]; 300 ppm) | P-res. Mites control rating [3] | 3rd Instar Armyworms control rating ([4]; 10 ppm) | 3rd Instar Armyworms control rating ([4]; 100 ppm) | 3rd Instar Armyworms control rating ([4]; 1000 ppm) | Budworm Eggs control rating [5] | Aphids control rating [6] | further results |
| --- | --- | --- | --- | --- | --- | --- | --- | --- | --- | --- |
| CC1(C)CN=C(NN=C(C=Cc2ccc(C(F)(F)F)cc2)C=Cc2ccc(C(F)(F)F)cc2)NC1 [Amidino Hydrazone Linoleate] | 0 (0 control) | 7 (80% control) | 9 (100% control) | 0 (0 control) | 9 (100% control) | 9 (100% control) | 9 (100% control) | 0 (0 control) | 0 (0 control) | % Salt in Oil Layer [1, 8]: 47%; % Amidino Hydrazone in Oil Layer (w/w), Average [1, 8]: 30.3 % (w/w); % Amidino Hydrazone in Oil Layer (w/w) [1, 8]: 30.3 % (w/w) and 30.4 % (w/w) |
| CC1(C)CN=C(NN=C(C=Cc2ccc(C(F)(F)F)cc2)C=Cc2ccc(C(F)(F)F)cc2)NC1 [Amidino Hydrazone Linolenate] | 0 (0 control) | – | – | 0 (0 control) | – | 9 (100% control) | 9 (100% control) | 0 (0 control) | – | % Salt in Oil Layer [1, 9]: 55%; % Amidino Hydrazone in Oil Layer (w/w), Average [1, 9]: 35.4 % (w/w); % Amidino Hydrazone in Oil Layer (w/w) [1, 9]: 35.9 % (w/w) and 34.8 % (w/w); 1st Instar Tobacco Budworms control rating ([2]; 100 ppm, listed as Amidino Hydrazine Linolenate): 9 (100% control); 1st Instar Tobacco Budworms control rating ([2]; 300 ppm, listed as Amidino Hydrazine Linolenate): 9 (100% control); 3rd Instar Armyworms control rating ([4]; 10 ppm, listed as Amidino Hydrazine Linolenate): 9 (100% control); Aphids control rating ([6]; listed as Amidino Hydrazine Linolenate): 5 (60% control) |
| CC1(C)CN=C(NN=C(C=Cc2ccc(C(F)(F)F)cc2)C=Cc2ccc(C(F)(F)F)cc2)NC1 [Amidino Hydrazone Oleate] | 0 (0 control) | 0 (0 control) | 7 (80% control) | 0 (0 control) | 6 (70% control) | 9 (100% control) | 9 (100% control) | 0 (0 control) | 0 (0 control) | % Salt in Oil Layer [1, 10]: 44%; % Amidino Hydrazone in Oil Layer (w/w), Average [1, 10]: 28.0 % (w/w); % Amidino Hydrazone in Oil Layer (w/w) [1, 10]: 27.8 % (w/w) and 28.1 % (w/w) |
| CC1(C)CN=C(NN=C(C=Cc2ccc(C(F)(F)F)cc2)C=Cc2ccc(C(F)(F)F)cc2)NC1 [Amidino Hydrazone Stearate, 1,4-pentadien-3-one, 1,5-bis(alpha,alpha,alpha-trifluoro-p-tolyl)-(1,4,5,6-tetrahydro-5,5-dimethyl-2-pyrimidinyl)hydrazone stearate] | 0 (0 control) | 9 (100% control) | 9 (100% control) | 0 (0 control) | 9 (100% control) | 9 (100% control) | 9 (100% control) | 0 (0 control) | 8 (90% control) | % Salt in Oil Layer [1, 11]: 47%; % Amidino Hydrazone in Oil Layer (w/w), Average [1, 11]: 30.1 % (w/w); % Amidino Hydrazone in Oil Layer (w/w) [1, 11]: 29.8 % (w/w) and 30.4 % (w/w) |
| CC1(C)CN=C(NN=C(C=Cc2ccc(C(F)(F)F)cc2)C=Cc2ccc(C(F)(F)F)cc2)NC1 [Amidino Hydrazone, 1,5-bis(alpha,alpha,alpha-trifluoro-p-tolyl)-1,4-pentadien-3-one (1,4,5,6-tetrahydro-5,5-dimethyl-2-pyrimidinyl)hydrazone] | – | – | – | – | – | – | – | – | – | solubility in edible fats and oils attractive to fire ants ([7]; edible fats and oils as solvents for the toxicant): not very good solvents; solubility in fatty acids ([7]; oleic, linoleic, linolenic, stearic acid and mixtures): readily soluble |
